One data set has as its system Daphnia. Conditions: acute toxicity; cited from earlier work.
The conditions of data set [1]: cited from earlier work.
The conditions of data set [2]: cited from earlier work. The source holds these as a separate data set.
The subject of data set [3] is C. urealyticum CIP-I-2126 strain. The data set can be described thus: 2-EHN degradation with a non-biodegradable hydrophobic liquid phase (respirometer). In kind it is cell-based, Corynebacterium urealyticum. Conditions: per flask containing 500 mL medium at 500 mg/L 2-EHN. On the procedure:
The capacity for degradation of 2-EHN by the C. urealyticum CIP-I-2126 strain in the presence of a non-biodegradable hydrophobic liquid phase used as a substrate reservoir is studied. The cultures were carried out at 30° C. with a respirometer so as to determine the kinetic characteristics of the biodegradation.
Two non-biodegradable liquid phases were tested: 2,2,4,4,6,8,8-heptamethylnonane (HMN) and silicone oil (Table 3).

Another data set has as its system zebrafish. Conditions: acute toxicity; cited from earlier work.

For `CCCCC(CC)CO[N+](=O)[O-]` (stereo not shown) [2-EHN, 2-ethylhexyl nitrate], the “LC50 (50% lethal concentrations)” value in the data set on Daphnia and with zebrafish was “higher than its water solubility” in each case. Besides, the “Solubility at 20° C.” value in data set [1] is on record as 12.6 mg/L. Also, the “Vapour pressure at 20° C.” value in data set [2] is 27 Pa. Besides, the “MAXIMUM DEGRADATION RATE (MMOLO2/J)” value stood at 5.3 MMOLO2/J in data set [3] (liquid phase added: HMN), 5.8 MMOLO2/J in data set [3] (liquid phase added: Silicone oil) and 0.3 MMOLO2/J in data set [3] (liquid phase added: none).
